The nature of this assay: TEAC assay (trolox equivalent antioxidant activity assay). The following applies: absorption at 734 nm measured after 6 minutes; relative to trolox = 1.0. The protocol:
• a) The basis for the determination of the antioxidative efficacy is the so-called DPPH test, as described in Bünger et al. [Buenger, J., Ackermann, H., Jentzsch, A., Mehling, A., Pfizner, I., Reiffen, K.-A., Schroeder, K.-R., and Wollenweber U., An interlaboratory comparison of methods used to assess antioxidant potentials, Int. J. Cosm. Sci., 28 (2006) 1-12]. The anti-oxidative efficacy of [(7,8-dihydroxy-4-oxo-4H-chromen-3-yl)hydroxy-methyl]phosphonic acid is determined in the DPPH test. […] J. Cosm. Sci., 28 (2006), 1-12].
ABTS [2,2′-azinobis(3-ethylbenzothiazoline-6-sulfonic acid)] reacts with potassium peroxodisulfate by generating a stable free-radical cation which absorbs at 734 nm. The antioxidant measured reduces the free-radical cation and thus causes a weakening of the absorption capacity at 734 nm. The absorption is measured after a fixed time span of 6 minutes. The anti-oxidative potential of the substance measured is indicated as activity compared with trolox. The substance measured may be present dissolved in water or ethanol during the measurement.

Molecules are shown by their SMILES.

Consider `Cc1c(C)c2c(c(C)c1O)CCC(C)(C(=O)O)O2` (centres unmarked) [trolox, reference compound], for which the “antioxidative potential, activity compared with trolox (TEAC)” value is 1.0.
On to `O=c1c(C(O)P(=O)(O)O)coc2c(O)c(O)ccc12` (centres unmarked) [Example 1, [(7,8-dihydroxy-4-oxo-4H-chromen-3-yl)-hydroxymethyl]phosphonic acid], for which the “antioxidative potential, activity compared with trolox (TEAC)” value was 0.93.

These data come from US8052963B2, “[(4-oxo-4H-chromen-3-yl)hydroxymethyl]- or [(4-oxo-4H-chromen-3-yl)methyl]phosphonic acid derivatives” (Merck Patent Gesellschaft mit beschrankter Haftung, priority 2006, dated 2011).
